Test results reported in ChEMBL document CHEMBL1201862, “PubChem BioAssay data set” (2004).
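Five concentrations, 48 hours, 96-well plates. GI50 is the concentration that inhibits growth by half.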 Active and inactive are the calls of the source. Rule as the data show it: active = GI50 up to about 1.1 µM and inactive = higher.

Key:
Assay in all cases: DTP human tumour cell line panel, 48 h
XF498 = test system: XF498
RXF 631 = test system: RXF 631
LXFL 529 = test system: LXFL 529
DMS-273 = test system: DMS-273
M19-MEL = test system: M19-MEL
SNB-78 = test system: SNB-78
KM-20L2 = test system: KM-20L2
HOP-18 = test system: HOP-18
DLD-1 = test system: DLD-1

Measured: GI50

C=C1C(=O)OC2C1C(OC(=O)/C(C)=C\C)CC1(CO1)C1C(O)C=C(C)C21O (configuration not stated)
inactive: XF498 12.7 µM | RXF 631 3.52 µM | LXFL 529 1.59 µM | DMS-273 6.46 µM | M19-MEL 6.24 µM | SNB-78 9.53 µM | KM-20L2 3.19 µM | HOP-18 10.9 µM | DLD-1 2.33 µM

CC(=O)N1CCC(=O)/C(=C/c2ccccc2)C1
inactive: XF498 64 µM | RXF 631 28.9 µM | LXFL 529 21.9 µM | DMS-273 33 µM | M19-MEL 20.4 µM | SNB-78 38.5 µM | KM-20L2 27.4 µM | HOP-18 23.2 µM | DLD-1 24.1 µM

CC1=C(C(=O)Nc2ccccc2)C(c2ccc(Cl)c(Cl)c2)C(C(=O)Nc2ccccc2)=C(C)N1
inactive: XF498 16.6 µM | RXF 631 12.4 µM | LXFL 529 12.9 µM | DMS-273 13 µM | M19-MEL 12.9 µM | SNB-78 17.7 µM | KM-20L2 14.9 µM | DLD-1 12.1 µM

CC(C)C(=O)/C=C/c1ccccc1
inactive: XF498 > 100 µM | LXFL 529 > 100 µM | DMS-273 65.2 µM | M19-MEL > 100 µM | SNB-78 33.1 µM | KM-20L2 36.1 µM | HOP-18 > 100 µM | DLD-1 84.7 µM

CC(C)=CCC/C(C)=C/CC/C(C)=C/C1CCC(=O)C1(C)C (configuration not stated)
inactive: XF498 18.2 µM | RXF 631 44.6 µM | LXFL 529 17.3 µM | M19-MEL 19.2 µM | SNB-78 22.6 µM | KM-20L2 16.3 µM | HOP-18 22.4 µM | DLD-1 17.4 µM

CCCc1ccc(/N=C\c2cc(OC)c(OC)c(OC)c2)cc1
inactive: XF498 > 100 µM | LXFL 529 99.3 µM | DMS-273 > 83.4 µM | M19-MEL > 100 µM | SNB-78 > 100 µM | KM-20L2 > 100 µM | HOP-18 > 100 µM | DLD-1 > 75.9 µM

COC(=O)[C@@H]1Cc2c([nH]c3ccccc23)[C@H](c2ccccc2)N1
inactive: LXFL 529 54.5 µM | DMS-273 26.7 µM | M19-MEL 41.7 µM | KM-20L2 > 100 µM | HOP-18 52.1 µM | DLD-1 35.2 µM

CN1COc2c(n(C)c(=O)[nH]c2=O)C1
inactive: XF498 > 100 µM | LXFL 529 > 100 µM | DMS-273 45.7 µM | M19-MEL > 100 µM | SNB-78 > 100 µM | KM-20L2 > 100 µM | HOP-18 > 100 µM | DLD-1 > 100 µM

Cc1cc(Cl)ccc1NC(=O)C(=O)C(C(=O)c1ccccc1)C1OC(=O)c2ccccc21 (configuration not stated)
inactive: XF498 > 100 µM | LXFL 529 > 100 µM | DMS-273 > 100 µM | M19-MEL > 100 µM | SNB-78 > 100 µM | KM-20L2 > 100 µM | HOP-18 > 100 µM | DLD-1 > 100 µM

Nc1c([N+](=O)[O-])nc(Cl)c2nncn12
inactive: XF498 > 100 µM | RXF 631 > 100 µM | LXFL 529 > 78.9 µM | DMS-273 16.5 µM | M19-MEL > 100 µM | SNB-78 > 100 µM | KM-20L2 > 87.1 µM | HOP-18 > 100 µM | DLD-1 > 58.9 µM

CSc1nnc(CCC(=O)Nc2c(C)cccc2C)o1
inactive: XF498 > 100 µM | RXF 631 > 100 µM | LXFL 529 > 100 µM | M19-MEL > 100 µM | SNB-78 > 100 µM | KM-20L2 > 100 µM | HOP-18 > 100 µM | DLD-1 > 100 µM

O=C(/N=N/C(=O)OCc1ccccc1)OCc1ccccc1
inactive: XF498 > 100 µM | RXF 631 > 100 µM | LXFL 529 68.2 µM | DMS-273 91.6 µM | M19-MEL > 100 µM | SNB-78 > 100 µM | KM-20L2 > 100 µM | HOP-18 > 100 µM

CC(c1cccc2ccccc12)/[N+]([O-])=C/c1ccccc1 (configuration not stated)
inactive: XF498 > 100 µM | RXF 631 > 100 µM | LXFL 529 > 100 µM | DMS-273 > 100 µM | KM-20L2 > 100 µM | HOP-18 36.1 µM | DLD-1 > 100 µM

CCC(C(=O)c1ccccc1)C(CCCC(=O)Nc1c(C)cccc1C)N=O (configuration not stated)
inactive: XF498 > 100 µM | RXF 631 > 100 µM | LXFL 529 > 100 µM | DMS-273 > 100 µM | M19-MEL > 100 µM | SNB-78 > 100 µM | KM-20L2 > 100 µM | HOP-18 > 100 µM | DLD-1 > 100 µM

O=C(c1ccc(O)cc1)C1c2c3c(cc(O)c2C(c2ccc(O)cc2)C1c1cc(O)cc(O)c1)OC(c1ccc(O)cc1)C3c1cc2c(cc1O)OC(c1ccc(O)cc1)C2c1cc(O)cc(O)c1 (configuration not stated)
inactive: LXFL 529 > 12.5 µM | DMS-273 > 12.5 µM | M19-MEL > 12.5 µM | KM-20L2 > 12.5 µM | DLD-1 > 12.5 µM

CCCCCCCCNC(=O)SCCCC
inactive: XF498 13.8 µM | RXF 631 39.1 µM | LXFL 529 38.5 µM | DMS-273 31.4 µM | M19-MEL 40.5 µM | KM-20L2 33.3 µM | HOP-18 31 µM | DLD-1 43.4 µM

CCOC(=O)/C(=C/c1ccc(C#N)cc1)N(CC)CC
inactive: XF498 > 100 µM | RXF 631 > 100 µM | LXFL 529 > 100 µM | M19-MEL > 100 µM | SNB-78 > 100 µM | HOP-18 63 µM | DLD-1 > 100 µM

COC(=O)/C=C/C1C(C(=O)OC)C2(C(=O)OC)CCC1(C(=O)OC)N2 (configuration not stated)
inactive: XF498 > 100 µM | RXF 631 > 100 µM | LXFL 529 > 100 µM | DMS-273 > 100 µM | M19-MEL > 100 µM | SNB-78 > 100 µM | KM-20L2 > 100 µM | HOP-18 96.8 µM | DLD-1 > 100 µM
